Structures can show the parent of a compound that is named as a salt.
Assays:
interferon (α) = assay: Cytokine Induction in Human Cells: interferon (α) by ELISA; type: cell-based; design: key to Lowest Effective Concentration Interferon: A “*” indicates that no induction was seen at any of the tested concentrations; settings: human PBMC, 18 to 24 hours incubation, compounds generally tested at 30-0.014 μM; for minimal effective concentration: read-out: Lowest Effective Concentration Interferon
Source text: (§1) An in vitro human blood cell system is used to assess cytokine induction. Activity is based on the measurement of interferon and tumor necrosis factor (α) (IFN and TNF, respectively) secreted into culture media as described by Testerman et. al. In “Cytokine Induction by the Immunomodulators Imiquimod and S-27609”, Journal of Leukocyte Biology, 58, 365-372 (September, 1995).
(§2) Whole blood from healthy human donors is collected by venipuncture into EDTA vacutainer tubes. Peripheral blood mononuclear cells (PBMC) are separated from whole blood by density gradient centrifugation using Histopaque®-1077. Blood is diluted 1:1 with Dulbecco's Phosphate Buffered Saline (DPBS) or Hank's Balanced Salts Solution (HBSS). The PBMC layer is collected and washed twice with DPBS or HBSS and resuspended at 4×10^6 cells/mL in RPMI complete. The PBMC suspension is added to 48 well flat bottom sterile tissue culture plates (Costar, Cambridge, Mass. or Becton Dickinson Labware, Lincoln Park, N.J.) containing an equal volume of RPMI complete media containing test compound.
(§3) The compounds are solubilized in dimethyl sulfoxide (DMSO). The DMSO concentration should not exceed a final concentration of 1% for addition to the culture wells. The compounds are generally tested at concentrations ranging from 30-0.014 μM.
(§4) The solution of test compound is added at 60 μM to the first well containing RPMI complete and serial 3 fold dilutions are made in the wells. The PBMC suspension is then added to the wells in an equal volume, bringing the test compound concentrations to the desired range (30-0.014 μM). The final concentration of PBMC suspension is 2×10^6 cells/mL. The plates are covered with sterile plastic lids, mixed gently and then incubated for 18 to 24 hours at 37° C. in a 5% carbon dioxide atmosphere.
(§5) Following incubation the plates are centrifuged for 10 minutes at 1000 rpm (˜200×g) at 4° C. The cell-free culture supernatant is removed with a sterile polypropylene pipet and transferred to sterile polypropylene tubes. Samples are maintained at −30 to −70° C. until analysis. The samples are analyzed for interferon (α) by ELISA and for tumor necrosis factor (α) by ELISA or IGEN Assay
Interferon (α) concentration is determined by ELISA using a Human Multi-Species kit from PBL Biomedical Laboratories, New Brunswick, N.J. Results are expressed in pg/mL.
(§6) The table below lists the lowest concentration found to induce interferon and the lowest concentration found to induce tumor necrosis factor for each compound.

[1] = system: tumor necrosis factor (α); assay: Cytokine Induction in Human Cells: tumor necrosis factor (α) by ELISA or IGEN Assay; type: cell-based; design: key to Lowest Effective Concentration Tumor Necrosis Factor: A “*” indicates that no induction was seen at any of the tested concentrations; settings: human PBMC, 18 to 24 hours incubation, compounds generally tested at 30-0.014 μM; for minimal effective concentration: read-out: Lowest Effective Concentration Tumor Necrosis Factor
Source text: as §1, §2, §3, §4, §5
Tumor necrosis factor (α) (TNF) concentration is determined using ELISA kits available from Biosource International, Camarillo, Calif. Alternately, the TNF concentration can be determined by Origen® M-Series Immunoassay and read on an IGEN M-8 analyzer from IGEN International, Gaithersburg, Md. The immunoassay uses a human TNF capture and detection antibody pair from Biosource International, Camarillo, Calif. Results are expressed in pg/mL.
as §6

Question: With `CCOCc1nc2c(N)nc(C)cc2n1CCCCNC(=O)N1CCOCC1` (as salt: salt) [Example 10, N-{4-[4-amino-2-(ethoxymethyl)-6-methyl-1H-imidazo[4,5-c]pyridin-1-yl]butyl}morpholin-4-ylcarboxamide] as the compound, how does the melting point read?
Answer: 156.5 to 159.5 °C

Question: With `CCCCc1nc2c(N)nc(C)c(C)c2n1CCCCNC(=S)Nc1ccccc1` (hydrate or solvate) [Example 5, N-[4-(4-Amino-2-butyl-6,7-dimethyl-1H-imidazo[4,5-c]pyridin-1-yl)butyl]-N′-phenylthiourea Hydrate] as the compound, how does the melting point read?
Answer: 160 to 160.8 °C

Question: Which melting point does the source give for `Cc1nc(N)c2nc(C)n(CCNC(=O)N3CCOCC3)c2c1C` [Example 15, N-[2-(4-amino-2,6,7-trimethyl-1H-imidazo[4,5-c]pyridin-1-yl)ethyl]morpholin-4-ylcarboxamide] here?
Answer: 219 to 221 °C

Question: For `CCCCc1nc2c(N)nc(C)c(C)c2n1CCCCNS(C)(=O)=O` [Example 2, N-[4-(4-Amino-2-butyl-6,7-dimethyl-1H-imidazo[4,5-c]pyridin-1-yl)butyl]methanesulfonamide], which minimal effective concentration (interferon (α)) is on record?
Answer: 0.0046 µM

Question: And the minimal effective concentration [1]?
Answer: 0.01 µM

Question: And the melting point?
Answer: 130 to 130.5 °C

Question: For `Cc1nc(N)c2ncn(CCCCNC(=O)N3CCOCC3)c2c1C` [Example 11, N-[4-(4-amino-6,7-dimethyl-1H-imidazo[4,5-c]pyridin-1-yl)butyl]morpholin-4-ylcarboxamide], which melting point is on record?
Answer: 163.7 to 167 °C

Question: Which minimal effective concentration (interferon (α)) does the source give for `CCCCc1nc2c(N)nc(C)c(C)c2n1CCCCNC(=O)Nc1ccccc1` [Example 4, N-[4-(4-Amino-2-butyl-6,7-dimethyl-1H-imidazo[4,5-c]pyridin-1-yl)butyl]-N′-phenylurea] here?
Answer: 0.12 µM

Question: And the minimal effective concentration [1]?
Answer: 0.37 µM

Question: What about the melting point of the same compound?
Answer: 195.8 to 196.8 °C

Question: For `CCOCc1nc2c(N)nc(C)c(C)c2n1CCC1CCN(C(=O)N2CCOCC2)CC1` [Example 12, 2-(ethoxymethyl)-6,7-dimethyl-1-{2-[1-(morpholin-4-ylcarbonyl)piperidin-4-yl]ethyl}-1H-imidazo[4,5-c]pyridin-4-amine], which melting point is on record?
Answer: 158.1 to 160.5 °C

Question: Which melting point does the source give for `CCCCc1nc2c(N)nc(C)c(C)c2n1CCCCNS(=O)(=O)c1ccc(F)cc1` (hydrate or solvate) [Example 3, N-[4-(4-Amino-2-butyl-6,7-dimethyl-1H-imidazo[4,5-c]pyridin-1-yl)butyl]-4-fluorobenzenesulfonamide Hydrate] here?
Answer: 133.1 to 133.7 °C

Question: Which results are given for `CCOCc1nc2c(N)nc(C)cc2n1CCCCNC(=O)Nc1ccc(N(C)C)cc1` [Example 43]?
Answer: minimal effective concentration (interferon (α)): 0.041 µM; minimal effective concentration [1]: 10 µM

Question: Which melting point does the source give for `Cc1nc(N)c2nc(C)n(CCCNC(=O)N3CCOCC3)c2c1C` [Example 13, N-[3-(4-amino-2,6,7-trimethyl-1H-imidazo[4,5-c]pyridin-1-yl)propyl]morpholin-4-ylcarboxamide] here?
Answer: 128.9 to 129.7 °C

Question: For `CCOCc1nc2c(N)nc(C)c(C)c2n1CCC1CCN(C(=O)Nc2ccccc2)CC1` [Example 57], which minimal effective concentration (interferon (α)) is on record?
Answer: 0.37 µM

Question: And the minimal effective concentration [1]?
Answer: 1.11 µM

Question: Which melting point does the source give for `CCOCc1nc2c(N)nc(C)c(C)c2n1CCCNC(=O)N1CCOCC1` [Example 14, N-{3-[4-amino-2-(ethoxymethyl)-6,7-dimethyl-1H-imidazo[4,5-c]pyridin-1-yl]propyl}morpholin-4-ylcarboxamide] here?
Answer: 140.5 to 142.2 °C

Question: What does the source list for `COc1ccc(NC(=S)NCCCCn2cnc3c(N)nc(C)c(C)c32)cc1` [Example 35]?
Answer: minimal effective concentration (interferon (α)): 3.33 µM; minimal effective concentration [1]: 30 µM

Question: For `CCOCc1nc2c(N)nc(C)c(C)c2n1CCC1CCN(C(=S)Nc2ccc(OC)cc2)CC1` [Example 73], which minimal effective concentration (interferon (α)) is on record?
Answer: 0.12 µM

Question: What about the minimal effective concentration [1] of the same compound?
Answer: 1.11 µM

Question: For `Cc1nc(N)c2ncn(CCCCNC(=S)Nc3ccccc3)c2c1C` [Example 33], which minimal effective concentration (interferon (α)) is on record?
Answer: 3.33 µM

Question: What about the minimal effective concentration [1] of the same compound?
Answer: 3.33 µM

Question: With `CCOCc1nc2c(N)nc(C)cc2n1CCCCNC(=O)Nc1ccc(OC)cc1OC` [Example 45] as the compound, how does the minimal effective concentration (interferon (α)) read?
Answer: 3.33 µM

Question: What about the minimal effective concentration [1] of the same compound?
Answer: 10 µM

Question: Which results are given for `CCOCc1nc2c(N)nc(C)cc2n1CCCCNC(=O)NS(=O)(=O)c1ccccc1` [Example 47]?
Answer: Lowest Effective Concentration Interferon (interferon (α)): *; Lowest Effective Concentration Tumor Necrosis Factor [1]: *

Question: For `CCOCc1nc2c(N)nc(C)c(C)c2n1CCC1CCN(C(=O)N(C)c2ccccc2)CC1` [Example 68, 4-{2-[4-amino-2-(ethoxymethyl)-6,7-dimethyl-1H-imidazo[4,5-c]pyridin-1-yl]ethyl}-N-methyl-N-phenylpiperidine-1-carboxamide], which minimal effective concentration (interferon (α)) is on record?
Answer: 0.37 µM

Question: And the minimal effective concentration [1]?
Answer: 1.11 µM

Question: With `CNC(=S)NCCCCn1cnc2c(N)nc(C)c(C)c21` [Example 32] as the compound, how does the “Lowest Effective Concentration Interferon” value (interferon (α)) read?
Answer: *

Question: And the “Lowest Effective Concentration Tumor Necrosis Factor” value [1]?
Answer: *

Question: For `Cc1nc(N)c2ncn(CCCCNC(=O)Nc3cccc(C#N)c3)c2c1C` [Example 21], which “Lowest Effective Concentration Interferon” value (interferon (α)) is on record?
Answer: *

Question: What about the “Lowest Effective Concentration Tumor Necrosis Factor” value [1] of the same compound?
Answer: *

Question: What does the source list for `Cc1nc(N)c2ncn(CCCCNC(=O)NC(C)(C)C)c2c1C` [Example 17]?
Answer: minimal effective concentration (interferon (α)): 30 µM; Lowest Effective Concentration Tumor Necrosis Factor [1]: *

Question: For `COc1cccc(NC(=O)NCCCCn2cnc3c(N)nc(C)c(C)c32)c1` [Example 22], which “Lowest Effective Concentration Interferon” value (interferon (α)) is on record?
Answer: *

Question: And the “Lowest Effective Concentration Tumor Necrosis Factor” value [1]?
Answer: *

Question: Which “Lowest Effective Concentration Interferon” value (interferon (α)) does the source give for `Cc1nc(N)c2ncn(CCCCNC(=O)NS(=O)(=O)c3ccc(Cl)cc3)c2c1C` [Example 31] here?
Answer: *

Question: And the “Lowest Effective Concentration Tumor Necrosis Factor” value [1]?
Answer: *

Question: Which results are given for `CCOCc1nc2c(N)nc(C)cc2n1CCCCNC(=S)NC` [Example 49]?
Answer: minimal effective concentration (interferon (α)): 3.33 µM; minimal effective concentration [1]: 30 µM

Question: With `CCOCc1nc2c(N)nc(C)cc2n1CCCCNC(=O)NC(C)C` [Example 36] as the compound, how does the minimal effective concentration (interferon (α)) read?
Answer: 1.11 µM

Question: And the minimal effective concentration [1]?
Answer: 30 µM

Question: For `CCCCc1nc2c(N)nc(C)c(C)c2n1CCCCNC(=O)c1ccccc1` [Example 1, N-[4-(4-Amino-2-butyl-6,7-dimethyl-1H-imidazo[4,5-c]pyridin-1-yl)butyl]benzamide], which minimal effective concentration (interferon (α)) is on record?
Answer: 0.12 µM

Question: And the minimal effective concentration [1]?
Answer: 1.11 µM

Question: Which minimal effective concentration (interferon (α)) does the source give for `CCOCc1nc2c(N)nc(C)cc2n1CCCCNC(=O)Nc1ccccc1` [Example 39] here?
Answer: 3.33 µM

Question: What about the minimal effective concentration [1] of the same compound?
Answer: 10 µM

Question: What does the source list for `CCCCNC(=O)NCCCCn1cnc2c(N)nc(C)c(C)c21` [Example 18]?
Answer: Lowest Effective Concentration Interferon (interferon (α)): *; Lowest Effective Concentration Tumor Necrosis Factor [1]: *

Question: What does the source list for `Cc1nc(N)c2ncn(CCCCNC(=O)NS(=O)(=O)c3ccccc3)c2c1C` [Example 29]?
Answer: Lowest Effective Concentration Interferon (interferon (α)): *; Lowest Effective Concentration Tumor Necrosis Factor [1]: *

Question: With `CCCCNC(=O)NCCCCn1c(COCC)nc2c(N)nc(C)cc21` [Example 38] as the compound, how does the minimal effective concentration (interferon (α)) read?
Answer: 3.33 µM

Question: And the minimal effective concentration [1]?
Answer: 30 µM

Question: What does the source list for `Cc1nc(N)c2ncn(CCCCNC(=O)Nc3ccc(N(C)C)cc3)c2c1C` [Example 24]?
Answer: minimal effective concentration (interferon (α)): 10 µM; minimal effective concentration [1]: 30 µM

Question: Which minimal effective concentration (interferon (α)) does the source give for `CCOCc1nc2c(N)nc(C)cc2n1CCCCNC(=O)NCC(=O)OCC` [Example 40] here?
Answer: 3.33 µM

Question: And the “Lowest Effective Concentration Tumor Necrosis Factor” value [1]?
Answer: *

Question: For `COc1ccc(NC(=O)NCCCCn2cnc3c(N)nc(C)c(C)c32)c(OC)c1` [Example 26], which minimal effective concentration (interferon (α)) is on record?
Answer: 30 µM

Question: What about the minimal effective concentration [1] of the same compound?
Answer: 30 µM

Question: For `CCOCc1nc2c(N)nc(C)c(C)c2n1CCC1CCN(C(=O)Nc2cccc(OC)c2)CC1` [Example 61], which minimal effective concentration (interferon (α)) is on record?
Answer: 0.37 µM

Question: And the minimal effective concentration [1]?
Answer: 1.11 µM

From patent US6903113B2, “Urea substituted imidazopyridines” (3M Innovative Properties Company, priority 2000, dated 2005)
